Test results: paper PMC314469, “Protein Interaction Networks by Proteome Peptide Scanning” (PLoS Biology, 2004)

Test system: Myo5 SH3 domain
Assay: SPOT analysis of cellulose-bound peptides (WISE), Myo5 SH3 domain (Dataset S4)
Type: binding, Saccharomyces cerevisiae
Details: SPOT analysis of cellulose-bound 14-mer yeast proteome peptides, Myo5 SH3 domain; normalized value; mean where the peptide was synthesized more than once

Sequence	The normalized value in BLU units [BLU]
LDSMKNLPLNPSKK	268.3
SLISKRNPCYPYGI	483.2
LLAEHNGPKLPHIP	198.5
LLYLMTYPQQPMVK	161.7
GPIIHPGPEPPRYD	205.1
MLNEHGVPVVPSRE	199.3
LLAKLPLPRDPRVA	343.8
ALDNFTLPGTPGFP	180.7
LLQSLRLPTTPTER	124.6
KWTIMPHPNRPNAA	428.7
FPKKMGPPQWPFST	279.0
SFRELWQPVDPSRE	97.3
APPALSAPSIPPVP	10786.3
RPPSHSAPYIPRSS	47448.0
RRLKKNLPSLPTPV	823.8
KTKKKTVPVKPLQL	358.9
DGKLKHIPRRPYEI	306.6
GLIGMNDPPRPNVK	115.5

Sequence	The normalized value in BLU units [BLU]
PYMYKYLPRFPNLK	382.1
LSGTRLVPNCPLLW	431.8
RAAGMDVPIIPGIM	98.2
ILVPHLDPIDPWEA	166.0
VFSCLRDPVIPIKL	132.4
ALWAKFFPEKPLNI	154.0
PPPDFNDPTAPLSS	152.8
SASTMAAPVHPQQQ	164.3
PEGVFCIPAPPPNV	82.5
GARFLPAPHRPEKY	152.9
IAGMLMVPESPRFL	255.1
KELLLIPPGFPTKN	122.9
TYLTRPLPSTPNED	101.0
FESFLRPPSTPDLP	70.2
TLHELGVPITPIAF	118.6
HAEAFEDPSIPRIS	324.6
KASSMPAPPPPPPP	10514.9

Same assay, conditions: SPOT analysis of cellulose-bound peptides probed with Myo5 SH3 domain; normalized value

Sequence	The normalized value in BLU units (SPOT analysis, Myo5 SH3) [BLU]
TLPPLSSPMNPNGH	252.3
YEQTMKSPKYPSTY	138.4
IEFDLSKPFTPFQQ	134.1
NEIELLRPRSPVQK	125.6
KPPSYPSPVQPPQS	16459.5
GEIMFPAPPLPIAN	2774.8
ILIFLWIPDDPSKA	1371.6
HFNDLQSPAQPQQS	92.5
PEVHHHCPGVPCLV	331.3
QASMLRRPSLPHID	1102.4
DLKEFNGPEPPIKR	125.6
MANILYYPQKPLGT	152.5
AELFLGIPIFPGAS	36.7
IARSFTIPFLPKIP	204.5
AFHFWRPPIAPAEM	1961.3
FENLLMEPNLPFFT	202.2
LPTGYYEPMKPSSL	164.9

Sequence	The normalized value in BLU units (SPOT analysis, Myo5 SH3) [BLU]
GESHYKPPSTPKIN	721.8
KLEDLNEPLSPWIS	71.1
LPFMYLLPRFPSHI	454.8
VLIKFVIPVYPSLP	561.8
DARPFLQPVDPVKL	179.1
DFRLHYYPKDPSNV	77.7
NEGDLYPPEQPGVD	80.1
KLPQLPPPPPPPPP	54143.7
TLIEYMGPAPPKGS	133.3
HAWDMRSPHRPFYS	822.1
KEQNWKHPLLPLLK	321.0
QFSPMDDPKSPTPM	121.0
NEFLHFDPHIPQPA	156.4
GLRWYRSPIYPYLY	468.1
PPPPPPPPPVPA	95729
KWKSLFPPFFPCDI	241.7
LLKGYIPPYKPIVK	168.7

Same assay, conditions: SPOT analysis of membrane-bound peptides, Myo5 SH3 domain; normalized value (see methods)

Sequence	The normalized value in BLU units [BLU]
NRKQRSIPLSPIVP	490.7
HFNTKKIPELPSQF	466.9
DFIGRKSPDLPEYL	138.7
YGDNKKNPESPESV	147.1
ISNRRPVPRRPSQP	377.4
DIKTRSVPKIPSIE	102.3
QSEEKEKPKGPMAV	197.3
TKRQRGEPSEPQQD	27.7
EYSPRPSPWLPSKP	73.7
FNGDRLVPTLPTVS	160.6
ATVVKNCPGDPELF	76.2
PRSKKKKPAPPTLL	412.9
LDTHKESPLRPKVR	199.3
VWGPKPVPFQPMDV	96.9
DSVLRQKPDKPRPI	134.9
RRIRKEHPGEPNVI	308.3
TILERLTPLVPNNL	249.4
EIPSKDHPYDPEKD	51.8
KSLQKFEPRYPKTA	244.9

Sequence	The normalized value in BLU units [BLU]
LNKTKLLPQSPILN	117.8
FRPHRLAPSAPATK	1405.4
NTIIKLFPYIPIPV	203.7
KIIKKCSPSVPKEE	242.5
SLLAKYQPSLPLVE	162.4
VNTPRSVPNSPNDG	65.0
LNATKISPSAPSKD	114.4
EVENKLRPDLPVKN	40.7
AGMAKTKPDVPLSY	157.7
RTFFKLPPNLPEAE	2608.2
CKYNRQHPANPAAA	189.3
NSFSKNDPNFPILK	160.5
VFYHRPAPKPPVTK	9049.3
SGSGRRYPQTPSYY	435.6
HEASKCFPKAPQAS	288.6
GSLVKTKPTLPLTK	421.7
IFVTRYLPYFPIMY	156.7
LKKQKAIPSSPCGM	306.9

Same assay, conditions: SPOT analysis of membrane-synthesized peptides probed with Myo5 SH3 domain; normalized value

Sequence	The normalized value in BLU units (SPOT analysis, Myo5 SH3) [BLU]
KVLIKTLPVLPEAR	236.7
WENFKEEPGEPLSR	96.8
KRKAKAPPPPPPPP	4025.3
PKSPKAYPKLPDIQ	357.2
AGLYKLSPLYPFDV	133.2
PDLNKRPPREPIEF	192.4
TGGGRIVPGVPPGA	118.4
PQTMRQAPKRPDAD	3257.1
NSVIRGCPGLPDTL	150.8
YWGKKFEPERPFEF	385.0
LSFDRPPPLTPEKN	174.4
FSTKKSKPIRPFVF	378.5
QGSNKYSPSSPLTT	171.4
TINSRFYPPIPISE	76.4
HSTPKPLPPVPALS	143.5
LDPGKNTPGLPEET	155.6
VLGPKYDPKCPEEH	156.7
YILPKTDPRSPYYI	188.5

Sequence	The normalized value in BLU units (SPOT analysis, Myo5 SH3) [BLU]
KKHDKLHPNYPSVK	406.8
TARNKKSPGGPRQR	593.2
ILPPRIVPAIPKKA	3670.9
VVAVKIIPKKPWNA	114.7
ALEERFDPKSPTKR	108.5
AEIVKLTPKNPFYK	102.1
RYPFRMIPELPPKR	3574.9
MYGSKFIPFGPKCQ	289.9
NELIKQGPKRPTSA	175.5
KITKKLGPKLPKAS	680.7
DVNHRYPPMAPTTV	175.5
EFDLKNIPMMPAGE	106.1
LASDKGLPMIPAFV	79.9
TDTTKVTPIVPVPI	48.0
KQAKRAPPSSPYVV	295.0
WLDEKRIPSTPIDY	163.3
ENENKKLPPAPTVF	67.7
ALLIKTVPGFPLLE	144.3
